This assay deals with compound-treated mice. Kind of assay: Neuropharmacological assay (SmartCube): behavioral activity signature and minimal effective dose. It counts as in vivo. The following applies: for minimal effective dose: Mus musculus, ip, MED = dose having 50% or more total activity, read-out: Potency: minimal effective dose (MED); for AD: ADHD (probability of activity signature) / AG: analgesic (probability of activity signature) / AX: anxiolytic (probability of activity signature) / CE: cognitive enhancer (probability of activity signature) / DP: anti-depressant (probability of activity signature) / MS: mood stabilizer (probability of activity signature) / PS: anti-psychotic (probability of activity signature) / SD: sedative hypnotic (probability of activity signature) / UN: uncharacterized CNS activity (probability of activity signature): i.p. 15 min before test, most efficacious dose(s). The text has this: Neurosci. 2011 Sep. 9; 5:103 (doi: 10.3389/fnins.2011.00103) (“Roberds”). As reported in Roberds, because psychiatric diseases generally result from disorders of cell-cell communication or circuitry, intact systems are useful in detecting improvement in disease-relevant endpoints. These endpoints are typically behavioral in nature, often requiring human observation and interpretation. To facilitate testing of multiple compounds for behavioral effects relevant to psychiatric disease, PsychoGenics, Inc. (Tarrytown, N.Y., “PGI”) developed SmartCube™, an automated system in which behaviors of compound-treated mice are captured by digital video and analyzed with computer algorithms. (D. Brunner et al., Drug Discov. Today 2002, 7:S107-S112). PGI Analytical Systems uses data from SmartCube™ to compare the behavioral signature of a test compound to a database of behavioral signatures obtained using a large set of diverse reference compounds. (The composition of the database as well as validation of the method is further described in Roberds). In this way, the neuropharmacological effects of a test compound can be predicted by similarity to major classes of compounds, such as antipsychotics, anxiolytics and antidepressants.
The SmartCube™ system produces an activity signature indicating the probability that the activity of the test compound at the administered dose matches a given class of neuropharmacological agents. (See, e.g., Roberds, FIGS. 2 and 3). The test compound is simultaneously compared against multiple classes of agents; thus, a separate probability is generated for each behavioral effect measured (e.g., anxiolytic activity, analgesic activity, etc.). In the table below, these probabilities are reported for each behavioral effect measured as follows:
where LOQ is the limit of quantification.
Provided compounds were dissolved in a mixture of Pharmasolve™ (N-methyl-2-pyrrolidone), polyethylene glycol and propylene glycol, and were injected i.p. 15 min. before the behavioral test. For each compound, injections were administered at 3 different doses. For each behavioral effect measured, results for the most efficacious dose(s) are presented. In the table below, DP: anti-depressant; AX: anxiolytic; SD: sedative hypnotic; PS: anti-psychotic; MS: mood stabilizer; AD: ADHD; CE: cognitive enhancer; AG: analgesic; UN: uncharacterized CNS activity.
The potency of many of the compounds in the table was also determined in the SmartCube™ system. Test compounds were routinely examined at dose levels of 0.3, 1, 3, 10 and 30 mg per kg (mpk), although the dose range was increased or decreased if necessary to obtain a full dose response curve. A compound's minimal effective dose (MED) is a measure of the compounds potency. The MED was defined as the dose (in mpk) having 50% or more total activity in SmartCube.

As a reminder, the minimal effective dose is the smallest amount tested that counted as effective. Regarding `Cc1cccc2c1COC[C@H]2N` (single isomer, unassigned) [Example 129], the minimal effective dose lay within 3 to 10 mg/kg, the “AD: ADHD (probability of activity signature)” value (“AD: ADHD” for short) was “+ (LOQ ≤ + <5%)”, the “AG: analgesic (probability of activity signature)” value (from here on “AG: analgesic”) is given as “++ (5% ≤ ++ <25%)” and the “AX: anxiolytic (probability of activity signature)” value (shortened to “AX: anxiolytic”) is on record as “+++ (25% ≤ +++ <50%)”. The “CE: cognitive enhancer (probability of activity signature)” value (“CE: cognitive enhancer” for short) is reported as “++ (5% ≤ ++ <25%)”, the “DP: anti-depressant (probability of activity signature)” value (“DP: anti-depressant” below) is reported as “++ (5% ≤ ++ <25%)”, the “MS: mood stabilizer (probability of activity signature)” value (“MS: mood stabilizer” below) is “+ (LOQ ≤ + <5%)” and the “PS: anti-psychotic (probability of activity signature)” value (“PS: anti-psychotic” below) is reported as “++ (5% ≤ ++ <25%)”. The “SD: sedative hypnotic (probability of activity signature)” value (shortened to “SD: sedative hypnotic”) was “++ (5% ≤ ++ <25%)” and the “UN: uncharacterized CNS activity (probability of activity signature)” value (“UN: uncharacterized CNS activity” below) is “+++ (25% ≤ +++ <50%)”.
Regarding `Cc1cccc2c1COC[C@@H]2N` (single isomer, unassigned) [Example 130], the minimal effective dose fell in the range of 3 to 10 mg/kg, the “AD: ADHD” value is “+ (LOQ ≤ + <5%)”, the “AG: analgesic” value was “++ (5% ≤ ++ <25%)” and the “AX: anxiolytic” value is “++ (5% ≤ ++ <25%)”. For the same molecule, the “CE: cognitive enhancer” value is “++ (5% ≤ ++ <25%)”, the “DP: anti-depressant” value is reported as “++ (5% ≤ ++ <25%)”, the “MS: mood stabilizer” value is given as “+ (LOQ ≤ + <5%)” and the “PS: anti-psychotic” value is given as “+++ (25% ≤ +++ <50%)”. For the same molecule, the “SD: sedative hypnotic” value is recorded as “++ (5% ≤ ++ <25%)” and the “UN: uncharacterized CNS activity” value is given as “++++ (50% ≤ ++++)”.
Regarding `Cc1cccc2c1[C@H](N)COC2` (single isomer, unassigned) [Example 133], the minimal effective dose is < 3 mg/kg, the “AD: ADHD” value is listed as “+ (LOQ ≤ + <5%)”, the “AG: analgesic” value is reported as “++ (5% ≤ ++ <25%)” and the “AX: anxiolytic” value is “++ (5% ≤ ++ <25%)”. Further, the “CE: cognitive enhancer” value is recorded as “++ (5% ≤ ++ <25%)”, the “DP: anti-depressant” value is recorded as “++ (5% ≤ ++ <25%)”, the “MS: mood stabilizer” value was “+ (LOQ ≤ + <5%)” and the “PS: anti-psychotic” value is on record as “+++ (25% ≤ +++ <50%)”. Also, the “SD: sedative hypnotic” value is on record as “+ (LOQ ≤ + <5%)” and the “UN: uncharacterized CNS activity” value is “++++ (50% ≤ ++++)”.
For `Cc1cccc2c1[C@@H](N)COC2` (single isomer, unassigned) [Example 134], the minimal effective dose was in the range of 3 to 10 mg/kg, the “AD: ADHD” value was “+ (LOQ ≤ + <5%)”, the “AG: analgesic” value was “++ (5% ≤ ++ <25%)” and the “AX: anxiolytic” value is listed as “+++ (25% ≤ +++ <50%)”. The “CE: cognitive enhancer” value was “++ (5% ≤ ++ <25%)”, the “DP: anti-depressant” value is given as “++ (5% ≤ ++ <25%)”, the “MS: mood stabilizer” value is on record as “+ (LOQ ≤ + <5%)” and the “PS: anti-psychotic” value was “++ (5% ≤ ++ <25%)”. Moreover, the “SD: sedative hypnotic” value was “++ (5% ≤ ++ <25%)” and the “UN: uncharacterized CNS activity” value was “+++ (25% ≤ +++ <50%)”.
Turning to `CN[C@@H]1COCc2cccc(C)c21` (single isomer, unassigned) [Example 137], the minimal effective dose was in the range of 3 to 10 mg/kg, the “AD: ADHD” value is given as “+ (LOQ ≤ + <5%)”, the “AG: analgesic” value is given as “++ (5% ≤ ++ <25%)” and the “AX: anxiolytic” value is listed as “++ (5% ≤ ++ <25%)”. The “CE: cognitive enhancer” value was “++ (5% ≤ ++ <25%)”, the “DP: anti-depressant” value was “+ (LOQ ≤ + <5%)”, the “MS: mood stabilizer” value was “+ (LOQ ≤ + <5%)” and the “PS: anti-psychotic” value is “++ (5% ≤ ++ <25%)”. Besides, the “SD: sedative hypnotic” value was “+ (LOQ ≤ + <5%)” and the “UN: uncharacterized CNS activity” value is listed as “+++ (25% ≤ +++ <50%)”.
Turning to `CN[C@H]1COCc2cccc(C)c21` (single isomer, unassigned) [Example 138], the minimal effective dose was in the range of 3 to 10 mg/kg, the “AD: ADHD” value was “+ (LOQ ≤ + <5%)”, the “AG: analgesic” value is “++ (5% ≤ ++ <25%)” and the “AX: anxiolytic” value is reported as “++ (5% ≤ ++ <25%)”. The “CE: cognitive enhancer” value is on record as “++ (5% ≤ ++ <25%)”, the “DP: anti-depressant” value was “++ (5% ≤ ++ <25%)”, the “MS: mood stabilizer” value is “+ (LOQ ≤ + <5%)” and the “PS: anti-psychotic” value is on record as “++ (5% ≤ ++ <25%)”. Moreover, the “SD: sedative hypnotic” value is “++ (5% ≤ ++ <25%)” and the “UN: uncharacterized CNS activity” value was “+++ (25% ≤ +++ <50%)”.
As to `CN[C@H]1COCc2c(Cl)cccc21` (single isomer, unassigned) [Example 150], the minimal effective dose is 3 to 10 mg/kg, the “AD: ADHD” value is listed as “+ (LOQ ≤ + <5%)”, the “AG: analgesic” value was “++ (5% ≤ ++ <25%)” and the “AX: anxiolytic” value was “++ (5% ≤ ++ <25%)”. Besides, the “CE: cognitive enhancer” value is “+ (LOQ ≤ + <5%)”, the “DP: anti-depressant” value was “+ (LOQ ≤ + <5%)”, the “MS: mood stabilizer” value is reported as “+ (LOQ ≤ + <5%)” and the “PS: anti-psychotic” value is listed as “++ (5% ≤ ++ <25%)”. The “SD: sedative hypnotic” value is reported as “+ (LOQ ≤ + <5%)” and the “UN: uncharacterized CNS activity” value is “++++ (50% ≤ ++++)”.
Consider `C[C@H]1OCc2ccccc2[C@@H]1N` (single isomer, unassigned) [Example 151], for which the minimal effective dose lay within 3 to 10 mg/kg, the “AD: ADHD” value is on record as “+ (LOQ ≤ + <5%)”, the “AG: analgesic” value was “++ (5% ≤ ++ <25%)” and the “AX: anxiolytic” value is recorded as “+++ (25% ≤ +++ <50%)”. For the same molecule, the “CE: cognitive enhancer” value is “++ (5% ≤ ++ <25%)”, the “DP: anti-depressant” value is on record as “++ (5% ≤ ++ <25%)”, the “MS: mood stabilizer” value was “+ (LOQ ≤ + <5%)” and the “PS: anti-psychotic” value is “++ (5% ≤ ++ <25%)”. Besides, the “SD: sedative hypnotic” value is listed as “++ (5% ≤ ++ <25%)” and the “UN: uncharacterized CNS activity” value is recorded as “++ (5% ≤ ++ <25%)”.
Regarding `C[C@@H]1OCc2ccccc2[C@@H]1N` (single isomer, unassigned) [Example 153], the minimal effective dose was 3 to 10 mg/kg, the “AD: ADHD” value is recorded as “+ (LOQ ≤ + <5%)”, the “AG: analgesic” value was “++ (5% ≤ ++ <25%)” and the “AX: anxiolytic” value is listed as “++ (5% ≤ ++ <25%)”. In addition, the “CE: cognitive enhancer” value is given as “++ (5% ≤ ++ <25%)”, the “DP: anti-depressant” value is on record as “+ (LOQ ≤ + <5%)”, the “MS: mood stabilizer” value is on record as “+ (LOQ ≤ + <5%)” and the “PS: anti-psychotic” value is listed as “++ (5% ≤ ++ <25%)”. The “SD: sedative hypnotic” value is reported as “+ (LOQ ≤ + <5%)” and the “UN: uncharacterized CNS activity” value is “+++ (25% ≤ +++ <50%)”.
Take `C[C@H]1OCc2ccccc2[C@H]1N` (single isomer, unassigned) [Example 154]: the minimal effective dose was 3 to 10 mg/kg, the “AD: ADHD” value is recorded as “+ (LOQ ≤ + <5%)”, the “AG: analgesic” value is “++ (5% ≤ ++ <25%)” and the “AX: anxiolytic” value is “++ (5% ≤ ++ <25%)”. Also, the “CE: cognitive enhancer” value is “++ (5% ≤ ++ <25%)”, the “DP: anti-depressant” value is “+ (LOQ ≤ + <5%)”, the “MS: mood stabilizer” value is reported as “+ (LOQ ≤ + <5%)” and the “PS: anti-psychotic” value was “++ (5% ≤ ++ <25%)”. The “SD: sedative hypnotic” value was “++ (5% ≤ ++ <25%)” and the “UN: uncharacterized CNS activity” value is given as “++++ (50% ≤ ++++)”.
